Active and inactive are the calls of the source. No cut-off for these calls is given here.
How the values were obtained:
Jurkat [1] = assay: Induction of apoptosis in human Jurkat cells assessed as early apoptotic cells at 200 nM after 24 hrs by Annexin V/7-AAD staining.based flow cytometric analysis relative to control; format: functional
Jurkat [2] = assay: Induction of apoptosis in human Jurkat cells assessed as late apoptotic cells after 24 hrs by Annexin V/7-AAD staining.based flow cytometric analysis; format: functional, cell-based; conditions: dose 50-400 nM
Jurkat [3] = assay: Induction of cell cycle arrest in human Jurkat cells assessed as accumulation at sub-G1 phase at 2 uM after 24 hrs by Guava Cell Cycle reagent based flow cytometric analysis relative to control; format: functional
Jurkat [4] = assay: Induction of DNA damage in human Jurkat cells assessed as increase in H2Ax phosphorylation at 2 uM after 2 hrs by Alexa Fluor555 staining based flow cytometric analysis; format: functional, cell-based
Jurkat [5] = assay: Induction of mitochondrial membrane potential loss in human Jurkat cells at 200 nM after 4 hrs by MitoSense Red/7-AAD. flow cytometric analysis; format: functional, cell-based
Jurkat [6] = assay: Induction of mitochondrial membrane potential loss in human Jurkat cells assessed as alife cells at 200 nM after 4 hrs by MitoSense Red/7-AAD. flow cytometric analysis (reference value: 98.47%); format: functional
Jurkat [7] = assay: Induction of mitochondrial membrane potential loss in human Jurkat cells assessed as stressed cells at 200 nM after 4 hrs by MitoSense Red/7-AAD. flow cytometric analysis (reference value: 1.12%); format: functional
Jurkat [8] = assay: Induction of mitochondrial membrane potential loss in human Jurkat cells assessed as death cells at 200 nM after 4 hrs by MitoSense Red/7-AAD. flow cytometric analysis (reference value: 0.22%); format: functional
Jurkat [9] = assay: Induction of DNA damage in human Jurkat cells assessed as increase in H2Ax phosphorylation at 0.2 uM after 2 hrs by Alexa Fluor555 staining based flow cytometric analysis; format: functional, cell-based
Jurkat [10] = assay: Induction of ROS generation in human Jurkat cells assessed as apoptotic cells at 200 nM after 4 hrs by MitoSox Red/annexin V-CF488A staining based flow cytometric analysis (reference value: 3.18%); format: functional
Jurkat [11] = assay: Induction of ROS generation in human Jurkat cells assessed as apoptotic cells with clear mitochondrial damages at 200 nM after 4 hrs by MitoSox Red/annexin V-CF488A staining based flow cytometric analysis (reference value: 0.39%); format: functional
Jurkat [12] = assay: Induction of ROS generation in human Jurkat cells assessed as living undamaged cells at 200 nM after 2 hrs by MitoSox Red/annexin V-CF488A staining based flow cytometric analysis (reference value: 95.44%); format: functional
Jurkat [13] = assay: Induction of ROS generation in human Jurkat cells assessed as mitochondria damaged cells at 200 nM after 4 hrs by MitoSox Red/annexin V-CF488A staining based flow cytometric analysis (reference value: 0%); format: functional

For `C#C[C@H](O)CCCCCCCCCCC/C=C\CC/C=C\CCCCCCCCCCCCCCCC`, the Activity (Jurkat [1]) was 78.6%, the Activity (Jurkat [2]) was “Dose-dependent effect” and the Activity (Jurkat [3]) was 15.1%. For the same compound, the Activity (Jurkat [4]) was “inactive”.
In the case of `CN[C@@H]1C[C@H]2O[C@@](C)([C@@H]1OC)n1c3ccccc3c3c4c(c5c6ccccc6n2c5c31)C(=O)NC4` [STAUROSPORINE], the Activity (Jurkat [5]) is reported as “Active”, the Activity (Jurkat [6]) is reported as 53.44% and the Activity (Jurkat [7]) is reported as 30.37%. For the same compound, the Activity (Jurkat [8]) was 15.87%.
`COc1cc([C@@H]2c3cc4c(cc3[C@@H](O[C@@H]3O[C@@H]5CO[C@@H](C)O[C@H]5[C@H](O)[C@H]3O)[C@H]3COC(=O)[C@H]23)OCO4)cc(OC)c1O` [ETOPOSIDE] was tested, and the Activity (Jurkat [9]) was “Active”, the Activity (Jurkat [10]) was 86.42% and the Activity (Jurkat [11]) was 13.1%. For the same compound, the Activity (Jurkat [12]) was 0.48% and the Activity (Jurkat [13]) was 0%.
`CC[C@@]1(O)C(=O)OCc2c1cc1n(c2=O)Cc2cc3ccccc3nc2-1` [CAMPTOTHECIN] showed an Activity (Jurkat [10]) of 68.24%, an Activity (Jurkat [11]) of 1.92% and an Activity (Jurkat [12]) of 29.83%. For the same compound, the Activity (Jurkat [13]) was 0%.

Reference: ChEMBL document CHEMBL4673230, “Total Synthesis of Natural Lembehyne C and Investigation of Its Cytotoxic Properties” (J Nat Prod, 2020)
